# From patent US6780871B2, “Methods and compositions for treating addiction disorders” (Albany Medical College, priority 2001, dated 2004)
# What was measured:
# Assay type in all cases: in vivo, rat
# [1] = system: morphine self-administration; assay: intravenous morphine self-administration; conditions: 18-methoxycoronaridine 1 mg/kg i.p., dextromethorphan 5 mg/kg s.c.
# Experimental: Dextromethorphan hydrobromide (5 mg/kg; Sigma/RBI, St. Louis, Mo.) was dissolved in saline and injected subcutaneously 20 minutes before testing. Mecamylamine hydrochloride (1 mg/kg; Sigma/RBI, St. Louis, Mo.) was dissolved in physiological saline and injected intraperitoneally 30 minutes before testing. All rats received two injections. For rats that received a single drug, half of them also received the appropriate saline/vehicle injection corresponding to each of the other two drugs.
# Naive female Long-Evans derived rats (250 g; Charles River, N.Y.) were maintained on a normal 12 h light cycle (lights on at 7:00 a.m., lights off at 7:00 p.m.). For all experiments the “Principles of Laboratory Animal Care” (NIH publication No. 85-23, revised 1985, which is hereby incorporated by reference) were followed.
# The intravenous self-administration procedure described in Glick et al., “18-MC Reduces Methamphetamine and Nicotine Self-administration in Rats,” NeuroReport 11:2013-2015 (2000) (“Glick I”), which is hereby incorporated by reference, was employed. Briefly, responses on either of two levers (mounted 15 cm apart on the front wall of each operant test cage) were recorded on an IBM compatible computer with a Med Associates, Inc. interface. The intravenous self-administration system consisted of polyethylene-silicone cannulas constructed according to the design of Weeks, “Long-term Intravenous Infusion,” pp. 155-168 in Myers (ed.), Methods in Psychobiology, Vol. 2, New York: Academic Press (1972) (“Weeks”), which is hereby incorporated by reference; Instech harnesses and swivels; and Harvard Apparatus infusion pumps (#55-2222). Shaping of the bar-press response was initially accomplished by training rats to bar-press for water. Cannulas were then implanted in the external jugular vein according to procedures described in Weeks, which is hereby incorporated by reference. Self-administration testing began with a 16-h nocturnal session followed by daily 1-h sessions, 5 days (Monday-Friday) a week. A lever-press response produced a 10 μl infusion of drug solution (0.01 mg of morphine sulfate) in about 0.2 s or a 50 μl infusion of drug solution (0.025 mg of methamphetamine sulfate) in about 1 s. Since all rats generally weighed 250±20 g, each response delivered approximately 0.04 mg/kg of morphine or 0.1 mg/kg of methamphetamine. Experiments to assess the effects of experimental treatments were begun when baseline self-administration rates stabilized (≦10% variation from one day to the next across 5 days), usually after 2 weeks of testing.
# Each data point represents the mean (±S.E.M.) percent of baseline of 6-8 rats. Significant differences between baseline and treatment are indicated by an asterisk (paired t-test, P<0.01-0.001).
# Each data point represents the mean (±S.E.M.) percent of baseline of 5-8 rats. Significant differences between baseline and treatment are indicated by an asterisk (paired t-test), P<0.05-0.01).
# [2] = system: nicotine self-administration; assay: nicotine self-administration; conditions: Example 7, FIGS. 11-12: mecamylamine 0.1 mg/kg i.p., 18-methoxycoronaridine 0.5 mg/kg i.p., dextromethorphan 0.5 mg/kg s.c., bupropion 5 mg/kg i.p.; 5-8 rats
# [3] = system: methamphetamine self-administration; assay: intravenous methamphetamine self-administration
# responding for water = assay: bar-pressing (responding) for water; conditions: dose of 3 mg/kg, alone, data not shown
# [4] = Example 5, FIG. 5: mecamylamine 1 mg/kg i.p., 6-8 rats
# [5] = Example 6, FIG. 8: mecamylamine 1 mg/kg i.p., bupropion 5 mg/kg i.p., 5-8 rats
# [6] = Example 5, FIG. 6: mecamylamine 1 mg/kg i.p., 18-methoxycoronaridine 2 mg/kg i.p., dextromethorphan 5 mg/kg s.c., 6-7 rats
# [7] = Example 6, FIG. 9: mecamylamine 1 mg/kg i.p., 18-methoxycoronaridine 5 mg/kg i.p., dextromethorphan 10 mg/kg s.c., bupropion 10 mg/kg i.p., 5-9 rats
Structure (SMILES),"effect on morphine self-administration (percent of baseline) [1, 4]","effect on morphine self-administration (percent of baseline) [1, 5]",effect on nicotine self-administration (percent of baseline) [2],"effect on methamphetamine self-administration (percent of baseline) [3, 6]","effect on methamphetamine self-administration (percent of baseline) [3, 7]",effect on responding for water (responding for water)
CNC1(C)C2CCC(C2)C1(C)C (centres unmarked) [mecamylamine],"none of the drugs administered alone, significantly decreased","none of the drugs administered alone, significantly decreased","none of the drugs administered alone, significantly decreased","none of the drugs administered alone, significantly decreased","none of the drugs administered alone, significantly decreased",decreases responding for water
COc1ccc2c(c1)[C@]13CCCC[C@@H]1[C@H](C2)N(C)CC3 [dextromethorphan],"none of the drugs administered alone, significantly decreased","none of the drugs administered alone, significantly decreased","none of the drugs administered alone, significantly decreased","none of the drugs administered alone, significantly decreased","none of the drugs administered alone, significantly decreased",–
